According to BindingDB's records for doi:10.7270/Q2N014XN (Srmlsc, 2007):
Counter-ions that a name gives are not always drawn.

Target: T1, Diphosphomevalonate decarboxylase (Streptococcus pneumoniae serotype 2 (strain D39 / NCTC 7466), UniProt A0A0H2ZN59)
T1 sequence (A0A0H2ZN59 whole entry): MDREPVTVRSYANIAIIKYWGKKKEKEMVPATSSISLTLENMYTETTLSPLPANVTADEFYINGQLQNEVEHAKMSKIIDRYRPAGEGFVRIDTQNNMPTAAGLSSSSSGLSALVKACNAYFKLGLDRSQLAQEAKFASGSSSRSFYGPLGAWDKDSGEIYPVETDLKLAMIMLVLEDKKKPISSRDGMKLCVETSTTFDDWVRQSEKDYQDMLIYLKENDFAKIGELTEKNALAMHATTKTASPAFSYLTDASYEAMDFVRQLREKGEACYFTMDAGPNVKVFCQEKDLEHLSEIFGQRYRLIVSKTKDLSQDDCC
Experiment: diphosphomevalonate decarboxylase inhibition dose curves – biochemical, PK/LDH-coupled NADH fluorescence, hexokinase coupling counter-screen, dose response (AID 550)

[1] = inactive by the depositor's call

SMILES	IC50 [µM]	IC50 [1] [µM]
Cc1cc(=O)oc2cc(OC(C)C(=O)O)c(Cl)cc12 (stereo unspecified) [2-(6-chloranyl-4-methyl-2-oxidanylidene-chromen-7-yl)oxypropanoic acid]	> 10000	–
CCOc1ccc(N(CC(=O)NC2CCCC(C)C2C)S(=O)(=O)c2c(C)noc2C)cc1 (stereo unspecified) [MLS000117395]	> 10000	–
CCn1c(SCC(=O)Nc2cccc(C(C)=O)c2)nnc1C(C)C [MLS000073205]	> 10000	–
O=c1cccccc1NCc1ccccc1 [2-(benzylamino)cyclohepta-2,4,6-trien-1-one]	–	278
CC(C)c1nc(NCC2CCCO2)c(C#N)c2c1COC(C)(C)C2 (stereo unspecified) [3,3-dimethyl-6-(2-oxolanylmethylamino)-8-propan-2-yl-1,4-dihydropyrano[3,4-c]pyridine-5-carbonitrile]	9.97	–
O=NC1=C(Cc2ccco2)CCC1 [(2E)-2-(2-furanylmethylidene)-1-cyclopentanone oxime]	> 10000	–
O=P1(NC2CCCC2)COc2ccccc2OC1 [MLS000084153]	> 10000	–
COCCNC(=O)C(C#N)c1nc2ccccc2nc1N1CCCCCC1 (stereo unspecified) [2-[3-(1-azepanyl)-2-quinoxalinyl]-2-cyano-N-(2-methoxyethyl)acetamide]	190	–
C/C(C=Nn1cnnc1)=C\c1ccco1 [(E)-3-(2-furanyl)-2-methyl-N-(1,2,4-triazol-4-yl)-2-propen-1-imine]	–	125
CCOC(=O)N1CCN(C(=O)CCc2c(C)nc3c(c(C)nn3-c3ccc(C)c(C)c3)c2C)CC1 [4-[3-[1-(3,4-dimethylphenyl)-3,4,6-trimethyl-5-pyrazolo[3,4-b]pyridinyl]-1-oxopropyl]-1-piperazinecarboxylic acid ethyl ester]	27.8	–
COC(=O)Cc1sc(=O)[nH]c1Nc1ccccc1 [MLS000111966]	> 10000	–
CC(=O)NCCn1c(SCc2cc(=O)n3cc(Cl)ccc3n2)nc2ccccc2c1=O [MLS000095256]	70.6	–
CCOC(=O)c1[nH]c2ccc(OC)cc2c1NC(=O)CN1CCN(c2ccccn2)CC1 [5-methoxy-3-[[1-oxo-2-[4-(2-pyridinyl)-1-piperazinyl]ethyl]amino]-1H-indole-2-carboxylic acid ethyl ester]	> 10000	–
COc1ccc(-c2nn3c(-c4ccco4)nnc3s2)cc1OC [6-(3,4-dimethoxyphenyl)-3-(2-furanyl)-[1,2,4]triazolo[3,4-b][1,3,4]thiadiazole]	235	–
O=c1[nH]c2cc3c(cc2cc1CN(CCCO)Cc1nnnn1Cc1ccc(F)cc1)OCO3 [7-[[[1-[(4-fluorophenyl)methyl]-1,2,3,4-tetrazol-5-yl]methyl-(3-oxidanylpropyl)amino]methyl]-5H-[1,3]dioxolo[4,5-g]quinolin-6-one]	54.1	–
Cc1cccc(C)c1NC(=O)C(c1ccccc1)N1CCN(C(=O)c2ccco2)CC1 (stereo unspecified) [MLS000086418]	> 10000	–
O=c1c2ccccc2sn1-c1ccc(S(=O)(=O)N2CCCCC2)cc1 [2-(4-piperidin-1-ylsulfonylphenyl)-1,2-benzothiazol-3-one]	2.15	–
COCCN(Cc1cc2cc3c(cc2[nH]c1=O)OCO3)C(=O)c1cccs1 [N-(2-methoxyethyl)-N-[(6-oxidanylidene-5H-[1,3]dioxolo[4,5-g]quinolin-7-yl)methyl]thiophene-2-carboxamide]	37.6	–
CCOc1ncccc1C(=O)Nc1ccc2c(C)cc(=O)oc2c1 [2-ethoxy-N-(2-keto-4-methyl-chromen-7-yl)nicotinamide]	> 10000	–

SMILES	IC50 [µM]	IC50 [1] [µM]
CC(=O)Nc1cccc(NC(=O)CSc2nnnn2Cc2ccccc2)c1 [MLS000068005]	> 10000	–
COc1ccc(CCn2c(N)c(S(=O)(=O)c3cccs3)c3nc4ccccc4nc32)cc1OC [1-[2-(3,4-dimethoxyphenyl)ethyl]-3-thiophen-2-ylsulfonyl-2-pyrrolo[3,2-b]quinoxalinamine]	105	–
O=C(c1noc2c1CCCC2)N1CCCCC1 [1-piperidinyl(4,5,6,7-tetrahydro-1,2-benzoxazol-3-yl)methanone]	> 10000	–
C=CCNc1nc(N2CCCC2)nc2ccccc12 [MLS000066749]	66.6	–
CCOC(=O)N1CCN(C(=O)c2cn(CC)c3cc(N4CCN(C)CC4)c(F)cc3c2=O)CC1 [4-[1-ethyl-6-fluoro-4-keto-7-(4-methylpiperazino)quinoline-3-carbonyl]piperazine-1-carboxylic acid ethyl ester;hydrochloride]	50.6	–
Cc1cccc(C(=O)Nc2cc(=O)n(C)c(=O)n2C)c1 [MLS000103605]	> 10000	–
COc1ccc(-c2cc(C(F)(F)F)nc(SCCC(=O)Nc3cc(C)on3)n2)cc1 [3-[4-(4-Methoxy-phenyl)-6-trifluoromethyl-pyrimidin-2-ylsulfanyl]-N-(5-methyl-isoxazol-3-yl)-propionamide]	> 10000	–
CC(O)COc1ccc(C(N=O)c2ccccc2)cc1 (stereo unspecified) [(E)-[4-(2-hydroxypropoxy)phenyl](phenyl)methanone oxime]	> 10000	–
COc1cc(NC(=O)c2cccs2)c(C(=O)OCC(=O)NCc2ccco2)cc1OC [4,5-dimethoxy-2-(2-thenoylamino)benzoic acid [2-(2-furfurylamino)-2-keto-ethyl] ester]	> 10000	–
N#Cc1c(C(F)(F)F)cc(-c2ccco2)nc1SCc1ccncc1 [6-(2-furanyl)-2-(pyridin-4-ylmethylthio)-4-(trifluoromethyl)-3-pyridinecarbonitrile]	> 10000	–
Sc1nnc(-c2ccccc2)n1C1C=CCCC1 (stereo unspecified) [MLS000111390]	> 10000	–
COc1ccc(-c2coc3cc(O)ccc3c2=O)cc1OC [3-(3,4-dimethoxyphenyl)-7-hydroxy-1-benzopyran-4-one]	19	–
c1ccc(N2CCN(c3cnccn3)CC2)nc1 [2-(4-pyridin-2-ylpiperazin-1-yl)pyrazine]	> 10000	–
CSc1ncc(Cl)c(C(=O)Nc2nnc(SC)s2)n1 [5-chloranyl-2-methylsulfanyl-N-(5-methylsulfanyl-1,3,4-thiadiazol-2-yl)pyrimidine-4-carboxamide]	> 10000	–
Cc1nc(-c2cnn(-c3ccccc3)c2)c2cc(C)oc2n1 [SMR000046165]	> 10000	–
COc1ccccc1NC(=O)CSc1nc(O)cc(=O)n1-c1ccccc1OC [N-(2-methoxyphenyl)-2-[1-(2-methoxyphenyl)-6-oxidanyl-4-oxidanylidene-pyrimidin-2-yl]sulfanyl-ethanamide]	> 10000	–
Cc1cccn2c(=O)c3cc(C#N)/c(=N\C(=O)c4ccc5c(c4)OCO5)n(CC(C)C)c3nc12 [MLS000082296]	118	–
COc1cccc(C(=O)OCn2nnc3ccccc3c2=O)c1 [(4-oxidanylidene-1,2,3-benzotriazin-3-yl)methyl 3-methoxybenzoate]	> 10000	–
Cc1nc(NCCN)c(C#N)c2c1COC(C)(C)C2 [6-(2-aminoethylamino)-3,3,8-trimethyl-1,4-dihydropyrano[3,4-c]pyridine-5-carbonitrile]	73.8	–

SMILES	IC50 [µM]	IC50 [1] [µM]
COc1ccccc1NC(=O)C1=C(C)N=C2CCCC(=O)C2C1c1ccc2c(c1)OCO2 (stereo unspecified) [4-(1,3-benzodioxol-5-yl)-N-(2-methoxyphenyl)-2-methyl-5-oxo-4,6,7,8-tetrahydro-1H-quinoline-3-carboxamide]	76.3	–
Clc1cccc(-c2ccc(C=Nn3cnnc3)o2)c1 [1-[5-(3-chlorophenyl)-2-furanyl]-N-(1,2,4-triazol-4-yl)methanimine]	–	101
Cc1cc(=O)[nH]c2ccccc12	> 10000	–
Cc1c(C(=O)OCC(C)(C)CN(C)C)oc2ccccc12 [3-Methyl-benzofuran-2-carboxylic acid 3-dimethylamino-2,2-dimethyl-propyl ester]	> 10000	–
O=c1c2cc(N3CCOCC3)ccc2[nH]c(=S)n1Cc1ccccn1 [MLS000095415]	36.1	–
OCCNc1ncnc2c1c(-c1ccccc1)c(-c1ccccc1)n2Cc1ccco1 [2-[[7-(2-furanylmethyl)-5,6-diphenyl-4-pyrrolo[2,3-d]pyrimidinyl]amino]ethanol]	> 10000	–
CC1(C)C(C=C(Cl)Cl)C1C(=O)N1CCN(c2ccccc2)CC1 (stereo unspecified) [1-{[3-(2,2-dichlorovinyl)-2,2-dimethylcyclopropyl]carbonyl}-4-phenylpiperazine]	> 10000	–
COc1cccc2cc3c(=O)n(-c4ccccc4)nc-3oc12 [8-methoxy-2-phenyl-3-[1]benzopyrano[2,3-c]pyrazolone]	> 10000	–
O=C(Nc1ccc2nc(-c3ccco3)c(-c3ccco3)nc2c1)N1CCCCCC1	46.5	–
CCN(CC)CCCN(Cc1cc2cc3c(cc2[nH]c1=O)OCO3)C(=O)Nc1ccccc1OC [1-[3-(diethylamino)propyl]-3-(2-methoxyphenyl)-1-[(6-oxidanylidene-5H-[1,3]dioxolo[4,5-g]quinolin-7-yl)methyl]urea]	33.7	–
CN(C)CCSc1nnc(-c2ccccc2)o1	> 10000	–
COCCOC(=O)c1c(C)oc2ccc(NS(=O)(=O)c3ccc(F)cc3)cc12 [2-methoxyethyl 5-[(4-fluorophenyl)sulfonylamino]-2-methyl-1-benzofuran-3-carboxylate]	> 10000	–
CCOC(=O)c1cncc(NC(=O)c2ccccc2)c1 [5-benzamido-3-pyridinecarboxylic acid ethyl ester]	> 10000	–
COc1cccc(C(=O)Nc2ccc(NC(=O)C(C)C)nc2)c1 [3-methoxy-N-[6-(2-methylpropanoylamino)pyridin-3-yl]benzamide]	> 10000	–
CCc1cc2c(=O)c(-c3nc4ccccc4[nH]3)coc2cc1OC(=O)N1CCOCC1	189	–
COc1ccc(-c2nn3c(-c4ccccn4)nnc3s2)cc1OC [6-(3,4-dimethoxyphenyl)-3-(2-pyridinyl)-[1,2,4]triazolo[3,4-b][1,3,4]thiadiazole]	89.8	–
CCOC(=O)c1cc2c(=O)n(C)c3ccccc3c2s1 [4-keto-5-methyl-thieno[3,2-c]quinoline-2-carboxylic acid ethyl ester]	> 10000	–
CCc1ccc(NC(=O)c2cnc3scc(C)n3c2=O)cc1 [MLS000102000]	> 10000	–
